Data taken from DBAASP.
Converted amounts (≈) assume the structure as drawn. “And” between values parts separate entries of the source, which are not always exact repeats. Equal values may be shown once.

Legend:
Test in all cases: ≥ marks a high value that may be exact or a test limit, other limits are often not marked, values filed in µg/mL are converted to µM
[1] = test system: Staphylococcus aureus ATCC 25923
Staphylococcus aureus MR = test system: Staphylococcus aureus MR
Acinetobacter baumannii = test system: Acinetobacter baumannii
[2] = test system: Staphylococcus aureus ATCC 29213
[3] = test system: Pseudomonas aeruginosa ATCC 27853
[4] = test system: Acinetobacter baumannii ATCC 19606
[5] = test system: Candida albicans ATCC 90028
[6] = test system: Escherichia coli ATCC 25922
Streptococcus mutans = test system: Streptococcus mutans
[7] = test system: Staphylococcus aureus KCTC 1621
[8] = test system: Escherichia coli KCTC 1682
[9] = test system: Pseudomonas aeruginosa KCTC 1637
[10] = test system: Salmonella typhimurium KCTC 1926
[11] = test system: Bacillus subtilis KCTC 3068
[12] = test system: Staphylococcus epidermidis KCTC 1917
[13] = test system: Salmonella enterica subsp. enterica serovar Pullorum C79-13
[14] = test system: Enterococcus faecalis ATCC 29212
[15] = test system: Salmonella enterica subsp. enterica serovar Typhimurium C77-31
[16] = test system: Staphylococcus epidermidis ATCC 12228
[17] = test system: Escherichia coli NCTC 10418
[18] = test system: Salmonella enterica subsp. enterica serovar Typhimurium ATCC 14028
Escherichia coli UB1005 = test system: Escherichia coli UB1005

## CC[C@H](C)[C@H](NC(=O)[C@H](CCCN=C(N)N)NC(=O)[C@H](CCC(N)=O)NC(=O)[C@@H](NC(=O)[C@@H](NC(=O)[C@H](CCCN=C(N)N)NC(=O)[C@@H](N)CCCCN)[C@@H](C)CC)C(C)C)C(=O)N[C@@H](CCCCN)C(=O)N[C@@H](CCCCN)C(=O)N[C@@H](Cc1ccccc1)C(=O)N[C@@H](CC(C)C)C(=O)N[C@@H](CCCN=C(N)N)C(=O)O [KRIVQRIKKFLR]
[1]
  MIC: ≥ 202 µM
Staphylococcus aureus MR
  MIC: ≥ 202 µM
Acinetobacter baumannii
  MIC: 12.6 µM (≈ 20 µg/mL)
[2]
  MIC: 1.25 µM (≈ 1.98 µg/mL)
[3]
  MIC: 1.25 µM (≈ 1.98 µg/mL)
[4]
  MIC: ≥ 50.5 µM
[5]
  MIC: 2.5 µM (≈ 3.96 µg/mL)
[6]
  MIC: 0.626 µM (≈ 0.992 µg/mL)

## CC[C@H](C)[C@H](NC(=O)[C@H](Cc1ccccc1)NC(=O)[C@H](Cc1cnc[nH]1)NC(=O)[C@@H](NC(=O)[C@H](Cc1ccccc1)NC(=O)[C@H](CCC(N)=O)NC(=O)[C@H](CCCCN)NC(=O)[C@@H](N)CC(C)C)C(C)C)C(=O)N[C@@H](Cc1cnc[nH]1)C(=O)N[C@@H](CCCN=C(N)N)C(=O)N[C@@H](Cc1ccccc1)C(N)=O [LKQFVHFIHRF]
Streptococcus mutans
  MIC: 21.7 µM (≈ 32 µg/mL)

## CC[C@H](C)[C@H](NC(=O)[C@H](CCCN=C(N)N)NC(=O)[C@H](CCCCN)NC(=O)[C@H](CCCN=C(N)N)NC(=O)[C@@H](NC(=O)[C@H](CCCN=C(N)N)NC(=O)[C@@H](N)CCCCN)[C@@H](C)CC)C(=O)N[C@@H](CCCCN)C(=O)N[C@@H](CCCCN)C(=O)N[C@@H](Cc1c[nH]c2ccccc12)C(=O)N[C@@H](CCCCN)C(=O)N[C@@H](CCCN=C(N)N)C(N)=O [KRIRKRIKKWKR]
[7]
  MIC: 4 µM (≈ 6.78 µg/mL)
[8]
  MIC: 2 µM (≈ 3.39 µg/mL)
[9]
  MIC: 2 µM (≈ 3.39 µg/mL)
[10]
  MIC: 2 µM (≈ 3.39 µg/mL)
[11]
  MIC: 4 µM (≈ 6.78 µg/mL)
[12]
  MIC: 2 µM (≈ 3.39 µg/mL)

## CC(C)C[C@H](NC(=O)[C@H](C)NC(=O)[C@H](Cc1c[nH]c2ccccc12)NC(=O)[C@H](CCCCN)NC(=O)[C@H](CC(N)=O)NC(=O)[C@H](Cc1c[nH]c2ccccc12)NC(=O)[C@H](CCCCN)NC(=O)[C@H](CCCCN)NC(=O)[C@H](CCCN=C(N)N)NC(=O)[C@H](Cc1ccccc1)NC(=O)[C@H](CCC(=O)O)NC(=O)[C@H](CO)NC(=O)[C@H](C)NC(=O)[C@@H](NC(=O)[C@H](CC(=O)O)NC(=O)[C@H](CC(C)C)NC(=O)[C@H](CCCN=C(N)N)NC(=O)[C@H](C)N)C(C)C)C(=O)N[C@@H](CO)C(=O)N[C@@H](CCCN=C(N)N)C(N)=O [ARLDVASEFRKKWNKWALSR]
[7]
  MIC: 16 µM (≈ 39.4 µg/mL)
[8]
  MIC: 8 µM (≈ 19.7 µg/mL)
[9]
  MIC: ≥ 32 µM
[10]
  MIC: 16 µM (≈ 39.4 µg/mL)
[11]
  MIC: 8 µM (≈ 19.7 µg/mL)
[12]
  MIC: 8 µM (≈ 19.7 µg/mL)

## CC(C)C[C@H](NC(=O)CNC(=O)CNC(=O)CNC(=O)[C@H](Cc1c[nH]c2ccccc12)NC(=O)[C@H](CCCCN)NC(=O)[C@H](Cc1c[nH]c2ccccc12)NC(=O)[C@H](CCCCN)NC(=O)[C@H](Cc1c[nH]c2ccccc12)NC(=O)[C@H](CCCCN)NC(=O)CNC(=O)[C@H](CC(N)=O)NC(=O)[C@H](CCCCN)NC(=O)[C@H](Cc1c[nH]c2ccccc12)NC(=O)[C@H](CCCCN)NC(=O)[C@H](Cc1c[nH]c2ccccc12)NC(=O)[C@H](CCCCN)NC(=O)[C@@H](N)Cc1c[nH]c2ccccc12)C(=O)N[C@H](C(=O)N[C@H](C(=O)N[C@@H](CC(C)C)C(=O)N[C@H](C(=O)N[C@@H](Cc1ccccc1)C(=O)N[C@H](C(=O)O)C(C)C)C(C)C)[C@@H](C)O)C(C)C [WKWKWKNGKWKWKWGGGLVTLVFV]
[13]
  MIC: 8 µM (≈ 24.1 µg/mL)
[14]
  MIC: 16 µM (≈ 48.3 µg/mL)
[15]
  MIC: ≥ 128 µM
[2]
  MIC: 8 µM (≈ 24.1 µg/mL)
[16]
  MIC: 32 µM (≈ 96.6 µg/mL)
[6]
  MIC: 2 µM (≈ 6.04 µg/mL)

## CC[C@H](C)[C@H](NC(=O)CNC(=O)CNC(=O)CNC(=O)[C@H](Cc1cnc[nH]1)NC(=O)[C@H](CC(C)C)NC(=O)[C@H](CC(C)C)NC(=O)[C@H](Cc1cnc[nH]1)NC(=O)[C@H](Cc1cnc[nH]1)NC(=O)[C@H](CC(C)C)NC(=O)[C@H](CCCCN)NC(=O)[C@H](CCCCN)NC(=O)[C@H](CC(C)C)NC(=O)[C@H](CC(C)C)NC(=O)[C@H](CCCN=C(N)N)NC(=O)[C@H](CCCN=C(N)N)NC(=O)[C@H](Cc1c[nH]c2ccccc12)NC(=O)[C@@H](N)CCCN=C(N)N)C(=O)N[C@@H](CCCCN)C(=O)N[C@@H](CCC(N)=O)C(=O)N[C@@H](CC(C)C)C(=O)N[C@@H](CC(C)C)C(=O)N[C@@H](Cc1cnc[nH]1)C(=O)N[C@@H](Cc1ccccc1)C(=O)N[C@@H](Cc1ccccc1)C(=O)N[C@@H](CCC(N)=O)C(=O)N[C@@H](CCCN=C(N)N)C(=O)N[C@@H](Cc1ccccc1)C(N)=O [RWRRLLKKLHHLLHGGGIKQLLHFFQRF]
Streptococcus mutans
  MIC: 4.52 µM (≈ 16 µg/mL)

## NCCCC[C@H](NC(=O)[C@H](CCCN=C(N)N)NC(=O)[C@H](CCCN=C(N)N)NC(=O)[C@H](Cc1c[nH]c2ccccc12)NC(=O)[C@H](Cc1c[nH]c2ccccc12)NC(=O)[C@H](CCCN=C(N)N)NC(=O)[C@@H](N)CCCN=C(N)N)C(=O)O [RRWWRRK]
Streptococcus mutans
  MIC: ≥ 109 µM

## C[C@H](NC(=O)CN)C(=O)N1CCC[C@H]1C(=O)N[C@@H](CCCCN)C(=O)NCC(=O)N[C@H]1CSSC[C@@H](C(=O)N[C@@H](CCCCN)C(N)=O)NC(=O)[C@@H]2CCCN2C(=O)[C@H](CCCCN)NC(=O)[C@@H]2CCCN2C(=O)[C@@H]2CCCN2C(=O)[C@H](Cc2ccc(O)cc2)NC(=O)[C@H](CO)NC(=O)[C@H](CCCCN)NC(=O)[C@H]([C@@H](C)O)NC(=O)[C@H](Cc2c[nH]c3ccccc23)NC1=O [GAPKGCWTKSYPPKPCK]
[17]
  MIC: ≥ 160 µM

## CC(C)C[C@H](NC(=O)[C@H](Cc1ccccc1)NC(=O)[C@@H]1CCCN1C(=O)[C@H](Cc1c[nH]c2ccccc12)NC(=O)[C@@H](N)Cc1c[nH]c2ccccc12)C(=O)N[C@@H](CCCN=C(N)N)C(=O)N[C@@H](CCCN=C(N)N)C(N)=O [WWPFLRR]
[13]
  MIC: ≥ 64 µM
[14]
  MIC: > 128 µM
[15]
  MIC: ≥ 64 µM
[2]
  MIC: 64 µM and 128 µM
[3]
  MIC: 64 µM (≈ 67.8 µg/mL)
[18]
  MIC: 32 µM (≈ 33.9 µg/mL)
[16]
  MIC: 32 µM (≈ 33.9 µg/mL)
Escherichia coli UB1005
  MIC: ≥ 128 µM
[6]
  MIC: 64 µM and 128 µM

## C[C@H](N)C(=O)N[C@@H](CCC(N)=O)C(=O)N[C@@H](C)C(=O)N[C@@H](C)C(=O)N[C@@H](CCCCN)C(=O)N[C@@H](CCC(N)=O)C(=O)N[C@@H](C)C(=O)N[C@@H](C)C(=O)N[C@@H](CCCCN)C(=O)N[C@@H](C)C(=O)N[C@@H](C)C(=O)N[C@@H](CCCCN)C(=O)N[C@@H](CCC(N)=O)C(=O)N[C@@H](Cc1ccccc1)C(N)=O [AQAAKQAAKAAKQF]
Streptococcus mutans
  MIC: ≥ 87.3 µM

## NCCCC[C@H](NC(=O)[C@H](Cc1c[nH]c2ccccc12)NC(=O)[C@H](CCCN=C(N)N)NC(=O)[C@H](CCCCN)NC(=O)[C@H](CCCN=C(N)N)NC(=O)[C@H](Cc1c[nH]c2ccccc12)NC(=O)[C@@H](N)CCCN=C(N)N)C(=O)O [RWRKRWK]
Streptococcus mutans
  MIC: ≥ 224 µM

## CC[C@H](C)[C@H](NC(=O)[C@H](CCCCN)NC(=O)[C@H](Cc1c[nH]c2ccccc12)NC(=O)[C@H](CC(C)C)NC(=O)[C@@H](N)CCCCN)C(=O)N[C@H](C(=O)N[C@H](C(=O)N[C@H](C(=O)N[C@@H](CCCCN)C(=O)N[C@H](C(=O)N[C@@H](Cc1c[nH]c2ccccc12)C(=O)N[C@@H](CCCCN)C(N)=O)C(C)C)[C@@H](C)CC)C(C)C)C(C)C [KLWKIVVIKVWK]
[7]
  MIC: 16.2 µM (≈ 25 µg/mL)
[8]
  MIC: ≥ 32.5 µM
[9]
  MIC: 16.2 µM (≈ 25 µg/mL)
[10]
  MIC: 16.2 µM (≈ 25 µg/mL)
[11]
  MIC: ≥ 32.5 µM
[12]
  MIC: 16.2 µM (≈ 25 µg/mL)

## CC(C)C[C@H](NC(=O)[C@H](CC(C)C)NC(=O)[C@H](Cc1cnc[nH]1)NC(=O)[C@H](Cc1cnc[nH]1)NC(=O)[C@H](CC(C)C)NC(=O)[C@H](Cc1cnc[nH]1)NC(=O)[C@H](CCCCN)NC(=O)[C@H](CC(C)C)NC(=O)[C@H](CC(C)C)NC(=O)[C@H](CCCCN)NC(=O)[C@H](CCCCN)NC(=O)[C@H](CC(C)C)NC(=O)[C@@H](N)CCCCN)C(=O)N[C@@H](Cc1cnc[nH]1)C(N)=O [KLKKLLKHLHHLLH]
Streptococcus mutans
  MIC: 4.55 µM (≈ 8 µg/mL)
